Results published in the NIST ThermoML archive (doi:10.1021/acs.jced.5b01111).
± gives the expanded uncertainty stated by the source. Blank lines part the entries; values can stand above or below the compound they belong to.

Test: wn = mass fraction of the nth substance listed
Conditions: 288.15 K, 100 kPa, Liquid, Pycnometric method

mass density (w1 = 0.1653): 1122.9 ± 2.6 kg/m3
SMILES: O=P([O-])(O)O.[K+] [monopotassium phosphate] + O

mass density (w1 = 0.2472): 1168.2 ± 2.9 kg/m3
SMILES: [Cl-].[K+] [potassium chloride] + O

mass density (w1 = 0.0912): 1075.6 ± 2.4 kg/m3
SMILES: O=S(=O)([O-])[O-].[K+].[K+] [potassium sulfate] + O
